Measured values as given in patent US20030044413A1, “Methods of limiting apoptosis of cells” (Regents of the University of Minnesota, priority 1998, published 2003).

Key:
primary rat hepatocytes = experiment: Ethanol-induced apoptosis, Hoechst staining, primary rat hepatocytes; assay type: cell-based
Experimental: Incubation of cells with ethanol, TGF-β1, anti-Fas antibody or okadaic acid. Freshly isolated rat hepatocytes were cultured for 3 h as described above and then incubated with William's E medium supplemented with either 0.5% ethanol, 50 μM UDCA, ethanol plus UDCA, or no addition (control) for 2 h and 4 h. HuH-7 cells were incubated with Dulbecco's medium supplemented with either 1 nM TGF-β1 (R & D Systems, Minneapolis, Minn.), 100 μM UDCA, TGF-β1+UDCA, or no addition (control) for 24 h, 48 h, and 72 h. Hep G2 cells were incubated with Dulbecco's medium supplemented with either 0.5 μg/ml of anti-Fas antibody CH-11 (Upstate Biotechnology, Inc., Lake Placid, N.Y.), 100 μM UDCA, CH-11+UDCA, or no addition for 48 h. Both HuH-7 cells and human osteogenic sarcoma Saos-2 cells were cultured in Dulbecco's medium supplemented with either 50 nM okadaic acid (Boehringer Mannheim Biochemicals, Inc, Indianapolis, Ind.), 100 μM UDCA, okadaic acid+UDCA, or no addition for 48 h. In all the combination groups, cells were pretreated with UDCA alone for 60 min prior to addition of ethanol, TGF-β1, anti-Fas antibody or okadaic acid.
Morphological evaluation of apoptosis. Morphology was performed as described previously (Oberhammer et al., Proc. Natl. Acad. Sci. USA 89, 5408-5412 (1992)). Briefly, after fixation (with 4% formaldehyde in PBS, pH 7.4, for 10 min at room temperature), the cells were incubated with Hoechst dye 33258 (Sigma Chemical Co.) at 5 μg/ml in PBS for 5 min, washed with PBS and mounted with PBS:glycerol (3:1, v/v). Fluorescence was visualized with a Zeiss standard fluorescence microscope (Carl Zeiss, Inc., Thornwood, N.Y.). Photographs were taken with Kodak Ektar-1000 film (Eastman Kodak Co.). Stained nuclei were scored by blind analysis and categorized according to the condensation and staining characteristics of chromatin. Normal nuclei were identified as noncondensed chromatin dispersed over the entire nucleus. Apoptotic nuclei were identified by condensed chromatin, contiguous to the nuclear membrane, as well as nuclear fragmentation of condensed chromatin. Three fields per dish of approximately 500 nuclei were counted; mean values are expressed as the percent of apoptotic nuclei.

Hep G2 cells = experiment: FACS analysis of ΔΨm and ROS, Hep G2 cells; assay type: cell-based
Experimental: (§1) A ΔΨm and ROS measurement. ΔΨm and ROS production were measured by FACScan (Becton Dickinson) analysis. Freshly isolated rat hepatocytes were cultured for 3 h as described above and then incubated with William's E medium supplemented with either 100 μM DCA, 100 μM UDCA, equal molar amounts of both, or no bile acid (control), for 6 h. Rat hepatocytes were also cultured with either 1% ethanol, 100 μM UDCA, ethanol+UDCA, or no addition (control) for 4 h. HuH-7 cells, Hep G2 cells, and human osteogenic sarcoma Saos-2 cells were incubated with TGF-β1, anti-Fas antibody or okadaic acid, respectively, for 48 h under the same conditions as outlined above. For combination studies, cells were pretreated with UDCA or hyodeoxycholic acid for 60 min prior to addition of DCA, ethanol, TGF-β1, anti-Fas antibody or okadaic acid. Aliquots of 1.0×10^6 cells were incubated for 15 min at 37° C. with 50 nM 3,3′-dihexyloxacarbocyanine iodide [DiOC6(3)], 2 μM dihydroethidium (HE), or 5 μM 2′,7′-dichlorofluorescin diacetate (H2DCFDA; Molecular Probes, Inc. Eugene, Oreg.) and analyzed by cytofluorometry (Cathcart et al., Anal. Biochem., 134, 111-116 (1983); Zamzami et al., J. Exp. Med., 181, 1661-1672 (1 995); Carter et al., J. Leukocyte Biol., 55, 253-258 (1994)).
Rat primary hepatocytes were incubated with 100 μM DCA and 1% ETOH for 6 h and 4 h, respectively; HuH-7 cells with 1 nM TGF-β1 for 48 h; Hep G2 cells with 0.5 μg/ml anti-Fas antibody (CH-11) for 48 h, and Saos-2 cells with 50 nM okadaic acid (OA) for 48 h. In each combination group, cells were pretreated with 100 μM UDCA alone for 60 min prior to addition of the inducer. Aliquots of 1.0×10^6 cells were incubated for 15 min at 37° C. with 5 μM 2′,7′-dichlorofluorescin diacetate (H2DCFDA) and analyzed by cytofluorometry.

[1] = system: hepatocytes, HuH-7, Hep G2 and Saos-2 cells; experiment: FACS analysis of ΔΨm and ROS, summary over all cell types; assay type: cell-based; details: coadministration of UDCA with the inducers, range over cell types
Experimental: as §1

PARP = PARP cleavage in rat hepatocytes; assay type: cell-based; details: pretreatment with UDCA; DCA, TGF-β1 or okadaic acid
Source text: Determination of PARP cleavage. For the determination of PARP cleavage, total protein were separated on a 8% SDS-polyacrylamide electrophoresis gel. Blots were probed with primary polyclonal antibody to PARP (Santa Cruz Biotechnology).

astrocytes = experiment: Unconjugated bilirubin-induced apoptosis in astrocytes; assay type: cell-based, rat; details: coincubation of UCB with UDCA
[2] = Nuclear bile acid concentration in livers of fed rats; assay type: in vivo, rat
[3] = inducer CH-11, Hep G2, inhibition by UDCA

## C[C@H](CCC(=O)O)[C@H]1CC[C@H]2[C@@H]3[C@@H](O)C[C@@H]4C[C@H](O)CC[C@]4(C)[C@H]3CC[C@]12C [UDCA, ursodeoxycholic acid]
Primary rat hepatocytes; 0.5% ethanol + 50 μM UDCA
  cell viability: 79.5±7.9%
Primary rat hepatocytes; inducer ETOH, hepatocytes, inhibition by UDCA
  Inhibition % Apoptosis: 75.9 ± 13.8%
Hep G2 cells; 0.5 μg/ml CH-11 48 h, 100 μM UDCA pretreatment 60 min
  Peroxides Production (%) Inducer + UDCA: 6.2 ± 1.3 %
Hep G2 cells; Homo sapiens, HepG2, inducer CH-11, Hep G2, 100 μM UDCA, read-out: % Inhibition of peroxides production
  inhibition at 100 µM: 52.2 ± 14.9%
Hep G2 cells; [3]
  Inhibition % Superoxide Anion: 55.1 ± 10.8 %
  Inhibition % _Ψm: 63.1 ± 11.9%
[1]
  decrease in superoxide anion production: 55-93%
  inhibition of increase in other ROS: 39-65%
  inhibition of ΔΨm disruption: 21-63%
PARP
  prevention of PARP cleavage: 60%
astrocytes
  inhibition of apoptosis: over 50%
[2]; UDCA feeding
  share of the total nuclear bile acid concentration: 91.4%
[2]; livers from control and DCA fed rats
  concentration in nuclei relative to cytoplasmic levels: > 20 fold
